Data set [1] concerns breast cancer cells that overexpress HER2. Nature of the data set: HER2 expression and Akt activation in breast cancer cells. The format is cell-based.
The test system of data set [2] is MCF-7 human breast cancer cells. Nature of the data set: In vitro cytotoxicity, MTT assay. The conditions noted are these: n = 4. The format is cell-based. As to the method: Cytotoxicity of DOX-loaded cl-micelles was assessed in MCF-7 cells by a standard MTT assay as described (Kim et al. (2009) J. Control Release, 138:197-204). Briefly, cells were seeded in a 96-well microtiter plates with 5,000 cells per well and allowed to adhere for 24 hours prior to the assay. Cells were exposed to various doses (0-50 μg/ml on DOX basis) of DOX alone, polymer micelles alone, and DOX-loaded cl-micelles for 24 hours at 37° C., followed by washing with PBS, and maintaining in DMEM medium with 10% FBS for additional 72 hours. 25 μl of MTT indicator dye (5 mg/ml) was added to each well and the cells were incubated for 2 hours at 37° C. in the dark. 100 μl of 50% DMF-20% SDS solution was added to each well and kept overnight at 37° C. Absorption was measured at 570 nm in a microplate reader (SpectraMax® M5, Molecular Devices Co., USA) using wells without cells as blanks. […]
A general note: Tetrazolium assays rely on reduction of a dye to a coloured formazan, in cell work by metabolically active cells.

The conditions of data set [3]: carboxylic groups; cited from earlier work.

Regarding `C=CCNC1=C2C[C@@H](C)C[C@H](OC)[C@H](O)[C@@H](C)/C=C(\C)[C@H](OC(N)=O)[C@@H](OC)/C=C\C=C(/C)C(=O)NC(=CC1=O)C2=O` [17-AAG, 17-N-allylamino-17-demethoxygeldanamycin], in data set [1], the Akt activation entry is given as “inhibited Ala activation” and the HER2 expression entry was “downregulation of HER2 expression”.
Turning to `COc1cccc2c1C(=O)c1c(O)c3c(c(O)c1C2=O)C[C@@](O)(C(=O)CO)C[C@@H]3O[C@H]1C[C@H](N)[C@H](O)[C@H](C)O1.Cl` [Free DOX, Doxorubicin hydrochloride], the “IC50 (DOX equivalents)” value in data set [2] (MCF-7, 6 hours incubation) came to 0.283 ± 0.049 µg/mL; in data set [2] (MCF-7, 24 hours incubation), 0.046 ± 0.021 µg/mL.
As for `N[C@@H](CCC(=O)O)C(=O)O` [glutamic acid], in data set [3], the pKa entry is “ca. 4.4”.

Source of the values: patent publication US9498533B2, “Drug delivery compositions and methods” (Board of Regents of the University of Nebraska, priority 2011, dated 2016).
